ChEMBL document CHEMBL5032530, “Discovery of Benzocyclic Sulfone Derivatives as Potent CXCR2 Antagonists for Cancer Immunotherapy” (J Med Chem, 2021)
The source made the active and inactive calls. The rule behind the calls is not given here.

Assays:
[1] = target: C-C chemokine receptor type 1 (Homo sapiens) (UniProt P32246); assay: Agonist activity against CCR1 (unknown origin) assessed as induction of beta-arrestin 2 recruitment at 10 microM by beta arrestin assay relative to control; type: functional
[2] = target: C-C chemokine receptor type 1 (Homo sapiens) (UniProt P32246); assay: Antagonist activity against CCR1 (unknown origin) assessed as inhibition of beta-arrestin 2 recruitment at 10 microM by beta arrestin assay relative to control; type: functional; design: scale not given: the % may be the effect or the level left; conditions: filed as antagonist
[3] = target: C-C chemokine receptor type 4 (Homo sapiens) (UniProt P51679); assay: Agonist activity against CCR4 (unknown origin) assessed as induction of beta-arrestin 2 recruitment at 10 microM by beta arrestin assay relative to control; type: functional
[4] = target: C-C chemokine receptor type 5 (Homo sapiens) (UniProt P51681); assay: Antagonist activity against CCR5 (unknown origin) assessed as inhibition of beta-arrestin 2 recruitment at 10 microM by beta arrestin assay relative to control; type: functional; design: scale not given: the % may be the effect or the level left
[5] = target: C-C chemokine receptor type 6 (Homo sapiens) (UniProt P51684); assay: Agonist activity against CCR6 (unknown origin) assessed as induction of beta-arrestin 2 recruitment at 10 microM by beta arrestin assay relative to control; type: functional
[6] = target: C-C chemokine receptor type 6 (Homo sapiens) (UniProt P51684); assay: Antagonist activity against CCR6 (unknown origin) assessed as inhibition of beta-arrestin 2 recruitment at 10 microM by beta arrestin assay relative to control; type: functional; design: scale not given: the % may be the effect or the level left
[7] = target: C-C chemokine receptor type 9 (Homo sapiens) (UniProt P51686); assay: Agonist activity against CCR9 (unknown origin) assessed as induction of beta-arrestin 2 recruitment at 10 microM by beta arrestin assay relative to control; type: functional
[8] = target: C-C chemokine receptor type 10 (Homo sapiens) (UniProt P46092); assay: Antagonist activity against CCR10 (unknown origin) assessed as inhibition of beta-arrestin 2 recruitment at 10 microM by beta arrestin assay relative to control; type: functional; design: scale not given: the % may be the effect or the level left
[9] = target: CX3C chemokine receptor 1 (Homo sapiens) (UniProt P49238); assay: Antagonist activity against CX3CR1 (unknown origin) assessed as inhibition of beta-arrestin 2 recruitment at 10 microM by beta arrestin assay relative to control; type: functional; design: scale not given: the % may be the effect or the level left
[10] = target: C-X-C chemokine receptor type 1 (Homo sapiens) (UniProt P25024); assay: Agonist activity against CXCR1 (unknown origin) assessed as induction of beta-arrestin 2 recruitment at 10 microM by beta arrestin assay relative to control; type: functional
[11] = target: C-X-C chemokine receptor type 3 (Homo sapiens) (UniProt P49682); assay: Antagonist activity against CXCR3 (unknown origin) assessed as inhibition of beta-arrestin 2 recruitment at 10 microM by beta arrestin assay relative to control; type: functional; design: scale not given: the % may be the effect or the level left
[12] = target: C-X-C chemokine receptor type 5 (Homo sapiens) (UniProt P32302); assay: Antagonist activity against CXCR5 (unknown origin) assessed as inhibition of beta-arrestin 2 recruitment at 10 microM by beta arrestin assay relative to control; type: functional; design: scale not given: the % may be the effect or the level left
[13] = target: C-X-C chemokine receptor type 6 (Homo sapiens) (UniProt O00574); assay: Antagonist activity against CXCR6 (unknown origin) assessed as inhibition of beta-arrestin 2 recruitment at 10 microM by beta arrestin assay relative to control; type: functional; design: scale not given: the % may be the effect or the level left
[14] = target: Atypical chemokine receptor 3 (Homo sapiens) (UniProt P25106); assay: Agonist activity against CXCR7 (unknown origin) assessed as induction of beta-arrestin 2 recruitment at 10 microM by beta arrestin assay relative to control; type: functional
[15] = target: Atypical chemokine receptor 3 (Homo sapiens) (UniProt P25106); assay: Antagonist activity against CXCR7 (unknown origin) assessed as inhibition of beta-arrestin 2 recruitment at 10 microM by beta arrestin assay relative to control; type: functional; design: scale not given: the % may be the effect or the level left
[16] = Cmax in ICR mouse at 3 mg/kg, iv measured upto 48 hrs; type: ADME, organism-based; design: route intravenous, dose 3 mg/kg, time <=48; conditions: in vivo
[17] = AUC (0 to t) in ICR mouse at 30 mg/kg, po measured upto 48 hrs; type: ADME, organism-based; design: route oral, dose 30 mg/kg, time <=48; conditions: in vivo
[18] = AUC (0 to infinity) in ICR mouse at 30 mg/kg, po measured upto 48 hrs; type: ADME, organism-based; design: route oral, dose 30 mg/kg, time <=48; conditions: ICR, in vivo
[19] = Apparent volume of distribution in ICR mouse at 3 mg/kg, iv measured upto 48 hrs; type: ADME, organism-based; conditions: in vivo, read-out: Vz
[20] = Clearance in ICR mouse at 30 mg/kg, po measured upto 48 hrs; type: ADME, organism-based; conditions: ICR, in vivo
Panc02 [21] = assay: Antitumour activity against mouse Panc02 cells xenografted in mouse assessed as tumour growth inhibition at 10 mg/kg, po bid […]; type: functional; conditions: read-out: TGI
PANC-1 = assay: Cytotoxicity against human PanC-1 cells assessed as reduction in cell viability measured after 72 hrs by CCK8 assay; type: cell-based; conditions: PANC-1, 72 h
SW1990 = assay: Cytotoxicity against human SW1990 cells assessed as reduction in cell viability measured after 72 hrs by CCK8 assay; type: cell-based; conditions: SW1990, 72 h
BXPC-3 = assay: Cytotoxicity against human BxPC3 cells assessed as reduction in cell viability measured after 72 hrs by CCK8 assay; type: cell-based; conditions: BXPC-3, 72 h
[22] = Cytotoxicity against human PBMC cells assessed as reduction in cell viability measured after 72 hrs by CCK8 assay; type: cell-based
Panc02 [23] = assay: Antitumour activity against mouse Panc02 cells xenografted in mouse assessed as change in CD45 expressing immune cells infiltration into tumor tissue at 30 mg/kg, po bid measured after 15 days by flow cytometry analysis (reference value: 2.3%); type: functional; conditions: time 15 day
Panc02 [24] = assay: Antitumour activity against mouse Panc02 cells xenografted in mouse assessed as change in Gr1 expressing immune cells infiltration into tumor tissue at 10 mg/kg, po bid measured after 15 days by flow cytometry analysis (reference value: 27.4%); type: functional; conditions: time 15 day
Panc02 [25] = assay: Antitumour activity against mouse Panc02 cells xenografted in mouse assessed as change in CD11b expressing immune cells infiltration into tumor tissue using LY6C antibody at 30 mg/kg, po bid measured after 15 days by flow cytometry analysis (reference value: 20.5%); type: functional; conditions: time 15 day
Panc02 [26] = assay: Antitumour activity against mouse Panc02 cells xenografted in mouse assessed as reduction in infiltration of granulocytic MDSCs into tumor tissue at 30 mg/kg, po bid measured after 15 days by immunohistochemical analysis; type: functional, organism-based; conditions: time 15.0 day
Mus musculus = assay: Effect on granulocytic MDSCs level in mouse xenografted with […] cells at 10 to 30 mg/kg, po bid measured after 15 days by immunohistochemical analysis; type: ADME, organism-based; conditions: in vivo, 360 h, dose 10-30 mg/kg, time 15 day
Panc02 [27] = assay: Antitumour activity against mouse Panc02 cells xenografted in mouse assessed as upregulation of infiltration of CD3+ T cell into tumor tissue treated po twice a day measured after 15 days by immunohistochemical analysis; type: functional, organism-based; conditions: dose 10-30 mg/kg, time 15.0 day

Sequence of Atypical chemokine receptor 3 (Homo sapiens) (P25106 whole entry): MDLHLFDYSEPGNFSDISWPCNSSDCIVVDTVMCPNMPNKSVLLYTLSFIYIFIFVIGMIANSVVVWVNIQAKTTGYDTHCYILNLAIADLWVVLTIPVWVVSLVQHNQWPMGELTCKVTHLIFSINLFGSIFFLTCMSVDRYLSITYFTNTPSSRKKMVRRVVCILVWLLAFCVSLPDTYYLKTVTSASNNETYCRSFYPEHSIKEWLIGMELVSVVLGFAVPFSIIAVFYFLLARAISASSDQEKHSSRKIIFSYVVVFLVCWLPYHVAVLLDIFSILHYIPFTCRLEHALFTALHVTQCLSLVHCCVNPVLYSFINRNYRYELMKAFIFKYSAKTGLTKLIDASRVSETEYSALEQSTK
Sequence of C-C chemokine receptor type 6 (Homo sapiens) (P51684 whole entry): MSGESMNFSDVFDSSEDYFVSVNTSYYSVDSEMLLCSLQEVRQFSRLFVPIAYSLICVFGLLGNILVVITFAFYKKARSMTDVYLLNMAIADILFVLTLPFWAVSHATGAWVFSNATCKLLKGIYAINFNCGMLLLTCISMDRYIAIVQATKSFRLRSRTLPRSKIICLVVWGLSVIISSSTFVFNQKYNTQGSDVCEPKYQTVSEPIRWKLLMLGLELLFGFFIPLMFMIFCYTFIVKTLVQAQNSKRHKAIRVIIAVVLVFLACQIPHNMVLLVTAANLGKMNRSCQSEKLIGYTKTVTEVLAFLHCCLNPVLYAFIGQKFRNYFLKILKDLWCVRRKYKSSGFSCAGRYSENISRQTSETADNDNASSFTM
Sequence of C-C chemokine receptor type 1 (Homo sapiens) (P32246 whole entry): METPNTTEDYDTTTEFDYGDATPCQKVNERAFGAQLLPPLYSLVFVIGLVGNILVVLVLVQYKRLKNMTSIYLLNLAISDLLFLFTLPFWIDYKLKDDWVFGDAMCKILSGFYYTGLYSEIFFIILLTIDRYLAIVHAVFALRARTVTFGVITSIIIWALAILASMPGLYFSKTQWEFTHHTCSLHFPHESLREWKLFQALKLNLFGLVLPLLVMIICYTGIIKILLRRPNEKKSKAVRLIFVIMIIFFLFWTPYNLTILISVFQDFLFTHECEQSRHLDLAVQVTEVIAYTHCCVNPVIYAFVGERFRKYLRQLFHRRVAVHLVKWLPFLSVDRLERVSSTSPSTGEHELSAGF
Sequence of C-X-C chemokine receptor type 6 (Homo sapiens) (O00574 whole entry, looked up): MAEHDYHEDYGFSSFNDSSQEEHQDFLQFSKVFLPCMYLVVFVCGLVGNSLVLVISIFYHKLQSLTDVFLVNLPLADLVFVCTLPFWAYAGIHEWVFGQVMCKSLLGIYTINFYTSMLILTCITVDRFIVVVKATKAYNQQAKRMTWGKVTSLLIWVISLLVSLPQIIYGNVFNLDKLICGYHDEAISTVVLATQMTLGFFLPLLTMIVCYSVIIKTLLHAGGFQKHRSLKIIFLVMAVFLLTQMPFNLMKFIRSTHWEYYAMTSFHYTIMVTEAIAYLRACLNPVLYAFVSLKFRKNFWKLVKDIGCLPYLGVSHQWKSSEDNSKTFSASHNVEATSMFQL
Sequence of C-X-C chemokine receptor type 5 (Homo sapiens) (P32302 whole entry): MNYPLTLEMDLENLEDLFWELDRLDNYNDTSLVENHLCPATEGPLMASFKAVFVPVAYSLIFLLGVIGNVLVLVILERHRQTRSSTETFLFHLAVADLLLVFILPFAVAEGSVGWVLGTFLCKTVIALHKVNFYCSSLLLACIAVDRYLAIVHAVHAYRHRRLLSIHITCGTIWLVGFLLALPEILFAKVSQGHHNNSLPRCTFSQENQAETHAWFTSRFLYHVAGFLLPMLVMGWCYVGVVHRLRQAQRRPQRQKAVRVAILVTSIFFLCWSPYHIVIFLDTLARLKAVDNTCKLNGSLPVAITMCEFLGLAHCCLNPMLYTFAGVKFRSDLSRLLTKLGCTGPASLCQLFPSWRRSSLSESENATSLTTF
Sequence of C-C chemokine receptor type 5 (Homo sapiens) (P51681 whole entry, looked up): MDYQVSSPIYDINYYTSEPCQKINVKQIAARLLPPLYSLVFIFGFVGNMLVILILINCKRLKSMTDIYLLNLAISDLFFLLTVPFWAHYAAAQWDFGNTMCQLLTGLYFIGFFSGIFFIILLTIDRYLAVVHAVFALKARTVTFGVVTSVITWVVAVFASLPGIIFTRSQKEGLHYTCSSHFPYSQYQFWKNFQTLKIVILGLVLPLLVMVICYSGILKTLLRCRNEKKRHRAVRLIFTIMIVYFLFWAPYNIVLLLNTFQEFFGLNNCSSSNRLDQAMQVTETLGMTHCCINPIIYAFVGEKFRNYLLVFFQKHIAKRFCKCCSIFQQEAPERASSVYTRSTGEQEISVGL
Sequence of C-C chemokine receptor type 10 (Homo sapiens) (P46092 whole entry): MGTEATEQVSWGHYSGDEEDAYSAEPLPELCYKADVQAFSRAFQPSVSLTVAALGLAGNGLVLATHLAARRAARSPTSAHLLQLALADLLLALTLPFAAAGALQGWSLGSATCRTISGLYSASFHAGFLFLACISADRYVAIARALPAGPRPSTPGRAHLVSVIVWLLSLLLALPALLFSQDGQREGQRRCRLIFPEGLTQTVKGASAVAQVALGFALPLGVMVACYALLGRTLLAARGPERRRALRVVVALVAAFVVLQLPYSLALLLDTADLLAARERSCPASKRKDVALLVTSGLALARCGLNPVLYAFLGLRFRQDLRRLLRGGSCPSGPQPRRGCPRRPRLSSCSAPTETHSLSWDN
Sequence of C-X-C chemokine receptor type 3 (Homo sapiens) (P49682 whole entry): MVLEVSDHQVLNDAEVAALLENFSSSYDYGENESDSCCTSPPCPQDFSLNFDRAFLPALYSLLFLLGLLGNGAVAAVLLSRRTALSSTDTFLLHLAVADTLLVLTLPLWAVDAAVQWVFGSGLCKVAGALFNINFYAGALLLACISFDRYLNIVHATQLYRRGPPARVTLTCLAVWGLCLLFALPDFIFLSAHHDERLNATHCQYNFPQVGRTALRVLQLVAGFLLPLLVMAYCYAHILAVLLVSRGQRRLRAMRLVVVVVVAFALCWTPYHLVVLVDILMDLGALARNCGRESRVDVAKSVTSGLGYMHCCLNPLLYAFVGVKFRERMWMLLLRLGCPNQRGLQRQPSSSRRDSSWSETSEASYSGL
Sequence of C-X-C chemokine receptor type 1 (Homo sapiens) (P25024 whole entry): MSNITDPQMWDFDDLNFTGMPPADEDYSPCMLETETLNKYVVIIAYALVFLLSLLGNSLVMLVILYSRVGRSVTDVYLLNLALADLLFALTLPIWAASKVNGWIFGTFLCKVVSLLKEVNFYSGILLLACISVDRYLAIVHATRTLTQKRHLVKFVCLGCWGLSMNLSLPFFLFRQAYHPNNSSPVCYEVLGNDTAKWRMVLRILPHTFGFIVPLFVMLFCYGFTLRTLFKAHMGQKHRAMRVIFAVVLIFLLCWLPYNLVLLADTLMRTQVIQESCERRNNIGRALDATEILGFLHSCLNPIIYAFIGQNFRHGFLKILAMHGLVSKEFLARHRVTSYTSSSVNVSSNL
Sequence of CX3C chemokine receptor 1 (Homo sapiens) (P49238 whole entry): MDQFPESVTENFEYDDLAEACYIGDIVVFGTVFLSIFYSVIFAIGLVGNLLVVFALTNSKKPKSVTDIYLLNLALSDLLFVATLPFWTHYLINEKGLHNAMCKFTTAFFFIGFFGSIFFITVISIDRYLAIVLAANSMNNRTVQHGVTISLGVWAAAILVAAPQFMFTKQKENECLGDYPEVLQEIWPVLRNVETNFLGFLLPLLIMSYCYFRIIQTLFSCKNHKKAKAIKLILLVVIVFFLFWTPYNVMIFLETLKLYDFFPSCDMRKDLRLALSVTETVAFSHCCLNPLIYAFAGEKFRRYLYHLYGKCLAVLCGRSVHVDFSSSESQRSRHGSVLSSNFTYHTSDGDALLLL
Sequence of C-C chemokine receptor type 9 (Homo sapiens) (P51686 whole entry): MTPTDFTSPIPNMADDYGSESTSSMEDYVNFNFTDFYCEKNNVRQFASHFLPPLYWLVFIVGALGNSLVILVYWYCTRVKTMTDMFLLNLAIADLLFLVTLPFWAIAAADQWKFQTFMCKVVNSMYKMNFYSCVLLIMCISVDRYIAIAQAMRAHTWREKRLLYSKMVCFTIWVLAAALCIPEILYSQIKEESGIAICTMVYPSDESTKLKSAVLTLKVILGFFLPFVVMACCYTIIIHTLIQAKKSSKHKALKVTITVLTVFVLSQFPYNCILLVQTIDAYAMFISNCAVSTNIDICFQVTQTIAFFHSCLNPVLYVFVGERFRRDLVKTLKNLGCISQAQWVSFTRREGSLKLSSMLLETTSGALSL
Sequence of C-C chemokine receptor type 4 (Homo sapiens) (P51679 whole entry): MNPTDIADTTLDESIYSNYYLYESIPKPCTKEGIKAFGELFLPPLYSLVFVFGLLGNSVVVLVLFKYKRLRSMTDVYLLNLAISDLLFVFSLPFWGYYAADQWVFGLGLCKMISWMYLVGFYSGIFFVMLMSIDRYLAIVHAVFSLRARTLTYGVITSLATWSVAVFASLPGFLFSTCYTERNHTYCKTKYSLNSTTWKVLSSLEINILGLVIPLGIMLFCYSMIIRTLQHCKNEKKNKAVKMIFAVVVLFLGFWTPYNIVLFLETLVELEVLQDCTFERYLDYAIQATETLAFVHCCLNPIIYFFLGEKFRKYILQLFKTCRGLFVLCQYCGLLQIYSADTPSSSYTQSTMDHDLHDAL

- Activity [1]: < 10%
- Activity [2]: 49%
- Activity [3]: < 10%
- Activity [4]: < 10%
- Activity [5]: < 10%
- Activity [6]: < 10%
- Activity [7]: < 10%
- Activity [8]: < 10%
- Activity [9]: < 10%
- Activity [10]: < 10%
- Activity [11]: < 10%
- Activity [12]: 11%
- Activity [13]: 17%
- Activity [14]: < 10%
- Activity [15]: 15%
- Cmax [16]: 873 ng/mL
- AUC(0-t) at 48 h [17]: 218 ng·h/mL
- AUC(0-inf) [18]: 229 ng·h/mL
- Vd [19]: 49 L/kg
- CL/F [20]: 2190 mL/min/kg
SMILES: Cc1c(F)cccc1NC(=O)Nc1ccc2c(c1O)S(=O)(=O)CCC2
- inhibition in vivo at 10 mg/kg (Panc02 [21]): 42.5%
- IC50 (PANC-1): > 10 µM
- IC50 (SW1990): > 10 µM
- IC50 (BXPC-3): > 10 µM
- IC50 [22]: > 10 µM
- Activity (Panc02 [23]): 42.3%
- Activity (Panc02 [24]): 11.2%
- Activity (Panc02 [25]): 15.3%
- Activity (Panc02 [26]): Active
- Activity (Mus musculus): Non-Toxic
- Activity (Panc02 [27]): Dose-Dependent Effect
